In ChEMBL document CHEMBL5678811 (Invest New Drugs, 2014):
Calls of active or inactive are those of the source. The calls are words filed in the database; no cut-off is given here.

How the values were obtained:
MV4-11 [1] = test: Cell cycle arrest in human MV4-11 cells assessed as accumulation of cells at G2/M-phase at 0.04 uM measured after 24 hrs by propidium iodide staining based flow cytometry (reference value: 15.23%); type: functional
MV4-11 [2] = test: Cell cycle arrest in human MV4-11 cells assessed as accumulation of cells at G2/M-phase at […] measured after 24 hrs by propidium iodide staining based flow cytometry (reference value: 15.23%); type: functional; conditions: dose 0.625 µM
MV4-11 [3] = test: Cell cycle arrest in human MV4-11 cells assessed as accumulation of cells at S-phase at […] measured after 24 hrs by propidium iodide staining based flow cytometry (reference value: 23.35%); type: functional; conditions: dose 0.625 µM
MV4-11 [4] = test: Cell cycle arrest in human MV4-11 cells assessed as accumulation of cells at G1-phase at 1.25 uM measured after 24 hrs by propidium iodide staining based flow cytometry (reference value: 61.42%); type: functional
MV4-11 [5] = test: Cell cycle arrest in human MV4-11 cells assessed as accumulation of cells at G2/M-phase at 1.25 uM measured after 24 hrs by propidium iodide staining based flow cytometry (reference value: 15.23%); type: functional
MV4-11 [6] = test: Cell cycle arrest in human MV4-11 cells assessed as accumulation of cells at G2/M-phase at 2.5 uM measured after 24 hrs by propidium iodide staining based flow cytometry (reference value: 15.23%); type: functional
MV4-11 [7] = test: Cell cycle arrest in human MV4-11 cells assessed as accumulation of cells at G2/M-phase at 5 uM measured after 24 hrs by propidium iodide staining based flow cytometry (reference value: 15.23%); type: functional
MDA-MB-231 [8] = test: Cell cycle arrest in human MDA-MB-231 cells assessed as accumulation of cells at G1-phase at 0.16 uM measured after 24 hrs by propidium iodide staining based flow cytometry (reference value: 50.27%); type: functional
MDA-MB-231 [9] = test: Cell cycle arrest in human MDA-MB-231 cells assessed as accumulation of cells at S-phase at 0.16 uM measured after 24 hrs by propidium iodide staining based flow cytometry (reference value: 38.27%); type: functional
MDA-MB-231 [10] = test: Cell cycle arrest in human MDA-MB-231 cells assessed as accumulation of cells at S-phase at 2.5 uM measured after 24 hrs by propidium iodide staining based flow cytometry (reference value: 38.27%); type: functional
MDA-MB-468 = test: Cell cycle arrest in human MDA-MB-468 cells assessed as accumulation of cells at G2/M-phase at 0.16 uM measured after 24 hrs by propidium iodide staining based flow cytometry (reference value: 26.49%); type: functional
[11] = Toxicity in human COLO 205 cells xenografted CD1 nu/nu mouse assessed as decrease in lymphocyte count at 50 mg/kg, po administered daily via gavage for 56 days and measured on day 41 to 69 by hematological analysis; type: organism-based; conditions: in vivo, 1344 h, time 41-69 day
[12] = Toxicity in human COLO 205 cells xenografted CD1 nu/nu mouse assessed as decrease in lymphocyte count at 50 mg/kg, po administered daily via gavage for 2 cycles of 3 weeks on/1 week rest and measured on day 41 to 69 by hematological analysis; type: organism-based; conditions: in vivo, time 41-69 day
[13] = Plasma concentration at steady state in human COLO 205 cells xenografted po dosed CD1 nu/nu mouse; type: ADME, organism-based; conditions: in vivo
COLO 205 [14] = conditions: Mus musculus, CD1, dose 25-50 mg/kg, route po
COLO 205 [15] = conditions: Mus musculus, CD1, dose 25-50 mg/kg, route po; remark: listed apart in the source
COLO 205 [16] = conditions: Mus musculus, CD1, dose 50.0 mg/kg, route po
COLO 205 [17] = conditions: Mus musculus, CD1, dose 50.0 mg/kg, route po; remark: listed apart in the source
COLO 205 [18] = conditions: Homo sapiens, dose 50.0 mg/kg, route po, time > 56.0 day
Calu-6 = conditions: Homo sapiens, dose 50.0 mg/kg, route po, time 21.0 day
Mus musculus = organism: Mus musculus; conditions: CD1, dose 50.0 mg/kg, route po, time 17.0 day
[19] = biological target: Glycogen synthase kinase-3 beta (Homo sapiens) (UniProt P49841); conditions: dose 200.0 nM
Sequence of Glycogen synthase kinase-3 beta (Homo sapiens) (P49841 whole entry, looked up): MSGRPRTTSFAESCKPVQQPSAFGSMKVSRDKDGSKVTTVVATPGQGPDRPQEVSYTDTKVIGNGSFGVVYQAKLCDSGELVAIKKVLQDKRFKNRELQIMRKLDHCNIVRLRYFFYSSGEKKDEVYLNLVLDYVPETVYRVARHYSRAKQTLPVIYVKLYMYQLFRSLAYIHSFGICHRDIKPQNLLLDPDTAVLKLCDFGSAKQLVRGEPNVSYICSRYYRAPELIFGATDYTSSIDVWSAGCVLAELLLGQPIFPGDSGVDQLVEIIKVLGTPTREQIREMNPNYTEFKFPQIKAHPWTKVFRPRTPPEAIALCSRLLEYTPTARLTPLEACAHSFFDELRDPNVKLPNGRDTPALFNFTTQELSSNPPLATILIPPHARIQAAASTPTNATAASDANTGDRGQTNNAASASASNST
Description: Inhibition of human GSK3beta relative to control

[20] = biological target: Cyclin-dependent kinase 5/CDK5 activator 1 (Homo sapiens) (UniProt Q00535+Q15078); conditions: Sf21, dose 200.0 nM
Sequence of Cyclin-dependent kinase 5/CDK5 activator 1 (Homo sapiens) (Q00535 whole entry): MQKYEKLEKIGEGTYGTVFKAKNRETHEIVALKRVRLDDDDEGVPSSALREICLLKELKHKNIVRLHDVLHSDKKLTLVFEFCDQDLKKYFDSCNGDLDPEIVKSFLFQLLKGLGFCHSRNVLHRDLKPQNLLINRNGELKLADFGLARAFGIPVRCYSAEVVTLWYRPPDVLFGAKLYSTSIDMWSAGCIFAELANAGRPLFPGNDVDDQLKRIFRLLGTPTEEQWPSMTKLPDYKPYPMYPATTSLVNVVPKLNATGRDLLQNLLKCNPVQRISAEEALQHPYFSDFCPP
Sequence of Cyclin-dependent kinase 5/CDK5 activator 1 (Homo sapiens) (Q15078 99-307 partner limits assumed): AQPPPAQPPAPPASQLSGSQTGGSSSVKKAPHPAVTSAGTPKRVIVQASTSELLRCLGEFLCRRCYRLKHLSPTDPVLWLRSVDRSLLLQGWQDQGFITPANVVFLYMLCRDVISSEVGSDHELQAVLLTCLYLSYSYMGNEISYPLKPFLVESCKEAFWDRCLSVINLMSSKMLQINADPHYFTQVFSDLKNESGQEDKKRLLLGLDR
Description: Inhibition of recombinant human full-length N-terminal His6-tagged cdk5/N-terminal GST-tagged p35 expressed in baculovirus infected Sf21 cells at 200 nM using histone H1 as substrate relative to control

[21] = system: T1, Receptor-type tyrosine-protein kinase FLT3 (Homo sapiens), P36888 [D835Y]; conditions: Sf21, dose 200.0 nM
T1 sequence (whole entry): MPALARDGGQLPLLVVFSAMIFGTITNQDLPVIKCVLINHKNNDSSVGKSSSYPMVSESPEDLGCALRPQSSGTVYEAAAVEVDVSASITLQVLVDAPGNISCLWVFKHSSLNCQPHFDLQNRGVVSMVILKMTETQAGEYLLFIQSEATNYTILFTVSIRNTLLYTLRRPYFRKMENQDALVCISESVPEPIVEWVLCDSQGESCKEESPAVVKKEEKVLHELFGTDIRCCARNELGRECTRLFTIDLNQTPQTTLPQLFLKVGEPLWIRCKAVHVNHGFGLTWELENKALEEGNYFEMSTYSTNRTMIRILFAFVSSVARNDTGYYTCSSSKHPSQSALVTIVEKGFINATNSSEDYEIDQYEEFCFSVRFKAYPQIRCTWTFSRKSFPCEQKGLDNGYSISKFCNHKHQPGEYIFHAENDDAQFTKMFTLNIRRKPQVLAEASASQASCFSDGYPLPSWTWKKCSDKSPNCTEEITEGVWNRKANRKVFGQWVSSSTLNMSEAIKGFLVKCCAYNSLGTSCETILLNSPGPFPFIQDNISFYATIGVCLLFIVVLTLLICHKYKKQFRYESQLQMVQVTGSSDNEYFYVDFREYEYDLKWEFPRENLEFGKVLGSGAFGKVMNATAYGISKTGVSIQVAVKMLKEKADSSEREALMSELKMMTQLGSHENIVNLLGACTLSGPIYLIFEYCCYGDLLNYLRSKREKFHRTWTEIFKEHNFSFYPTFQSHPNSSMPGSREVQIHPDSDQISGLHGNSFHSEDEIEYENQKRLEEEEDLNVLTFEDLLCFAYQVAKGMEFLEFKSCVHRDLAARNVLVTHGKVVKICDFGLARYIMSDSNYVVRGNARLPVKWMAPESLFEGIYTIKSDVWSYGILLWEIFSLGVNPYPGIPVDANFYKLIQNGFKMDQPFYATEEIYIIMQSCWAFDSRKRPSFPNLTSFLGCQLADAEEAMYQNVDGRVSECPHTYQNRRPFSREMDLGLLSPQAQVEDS

[22] = biological target: High affinity nerve growth factor receptor (Homo sapiens) (UniProt P04629); conditions: Sf21, dose 200.0 nM
Sequence of High affinity nerve growth factor receptor (Homo sapiens) (P04629 33-796 limits assumed): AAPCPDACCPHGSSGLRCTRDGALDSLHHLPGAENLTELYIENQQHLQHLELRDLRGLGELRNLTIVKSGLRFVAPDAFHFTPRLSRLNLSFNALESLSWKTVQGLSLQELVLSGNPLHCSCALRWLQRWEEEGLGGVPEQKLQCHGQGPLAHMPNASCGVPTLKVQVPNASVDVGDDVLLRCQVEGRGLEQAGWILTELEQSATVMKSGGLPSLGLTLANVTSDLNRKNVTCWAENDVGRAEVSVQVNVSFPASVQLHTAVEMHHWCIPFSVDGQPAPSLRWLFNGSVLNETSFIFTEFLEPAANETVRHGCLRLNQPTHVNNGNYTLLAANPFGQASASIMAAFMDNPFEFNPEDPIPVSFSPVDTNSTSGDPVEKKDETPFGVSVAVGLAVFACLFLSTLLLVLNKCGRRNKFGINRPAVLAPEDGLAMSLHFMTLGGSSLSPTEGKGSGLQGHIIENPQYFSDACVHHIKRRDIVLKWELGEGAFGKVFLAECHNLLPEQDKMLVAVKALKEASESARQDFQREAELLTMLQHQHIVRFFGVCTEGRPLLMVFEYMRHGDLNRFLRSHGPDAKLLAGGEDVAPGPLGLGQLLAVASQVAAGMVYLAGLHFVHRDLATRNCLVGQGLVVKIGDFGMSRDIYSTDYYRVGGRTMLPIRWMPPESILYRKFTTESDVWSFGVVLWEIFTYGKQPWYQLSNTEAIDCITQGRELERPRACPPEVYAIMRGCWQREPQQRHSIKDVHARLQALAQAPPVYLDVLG

`CCN1CCN(Cc2ccc(Nc3ncc(F)c(-c4cc(F)c5nc(C)n(C(C)C)c5c4)n3)nc2)CC1` [ABEMACICLIB] showed an Activity (MV4-11 [1]) of 6.21%, an Activity (MV4-11 [2]) of 1.78% and an Activity (MV4-11 [3]) of 3.6%. The Activity (MV4-11 [4]) was 93.98%, the Activity (MV4-11 [5]) was 1.84% and the Activity (MV4-11 [6]) was 2.96%. For the same molecule, the Activity (MV4-11 [7]) was 0.54%, the Activity (MDA-MB-231 [8]) was 78.86% and the Activity (MDA-MB-231 [9]) was 17.12%. The Activity (MDA-MB-231 [10]) was 8.19%, the Activity (MDA-MB-468) was 24.55% and the Activity [11] was “Non-Toxic”. For the same molecule, the Activity [12] was “Non-Toxic”, the Cpss [13] was ~ 400 nM and the inhibition (COLO 205 [14]) was “Dose-Dependent Effect”. The inhibition (COLO 205 [15]) was “Dose-Dependent Effect”, the inhibition (COLO 205 [16]) was “inactive” and the inhibition (COLO 205 [17]) was “inactive”. The TGI (COLO 205 [18]) was “Active”, the TGI (Calu-6) was “Active” and the inhibition (Mus musculus) was “inactive”. It also gave an inhibition [19] of over 90%, an inhibition [20] of over 90% and an inhibition [21] of over 90%. The inhibition [22] was over 90%.
